Broadly, the IC50 is the midpoint of a concentration-inhibition curve. Read a high IC50 as weaker potency.

The source of these data is patent EP4722219A1 (Gan & Lee Pharmaceuticals Co., Ltd., priority 2023, dated 2024).

Holding throughout (assay type): cell-based
Assay [1] has as its system LNCaP cells. Description: Inhibition of LNCaP cell proliferation (WST-8). The following applies: Homo sapiens, LNCaP FGC cells, 96 hours. The protocol: The inhibitory activity of compounds disclosed in the present invention on LNCaP cell proliferation
The cells were cultured overnight in a 37°C, 5% CO2 cell incubator. […] The final concentration of the compound was 9 concentration points of 5-fold serial dilution starting from 10 µM. […] The cells were cultured in a cell culture incubator at 37°C and 5% CO2 for 96 hours. On the sixth day, the 96-well cell culture plate was removed, and 1/10 volume of WST-8 (Beytime, C0040) reagent was added to each well. The absorbance at 450 nm was detected using a microplate reader (TECAN, F50).
Background: Tetrazolium assays rely on reduction of a dye to a coloured formazan, in cell work by metabolically active cells.

Assay [2] addresses T1, AR protein (Homo sapiens, UniProt P10275, T878A).
T1 construct: host or cells: LNCaP FGC
T1 sequence (P10275 1-920 T878A): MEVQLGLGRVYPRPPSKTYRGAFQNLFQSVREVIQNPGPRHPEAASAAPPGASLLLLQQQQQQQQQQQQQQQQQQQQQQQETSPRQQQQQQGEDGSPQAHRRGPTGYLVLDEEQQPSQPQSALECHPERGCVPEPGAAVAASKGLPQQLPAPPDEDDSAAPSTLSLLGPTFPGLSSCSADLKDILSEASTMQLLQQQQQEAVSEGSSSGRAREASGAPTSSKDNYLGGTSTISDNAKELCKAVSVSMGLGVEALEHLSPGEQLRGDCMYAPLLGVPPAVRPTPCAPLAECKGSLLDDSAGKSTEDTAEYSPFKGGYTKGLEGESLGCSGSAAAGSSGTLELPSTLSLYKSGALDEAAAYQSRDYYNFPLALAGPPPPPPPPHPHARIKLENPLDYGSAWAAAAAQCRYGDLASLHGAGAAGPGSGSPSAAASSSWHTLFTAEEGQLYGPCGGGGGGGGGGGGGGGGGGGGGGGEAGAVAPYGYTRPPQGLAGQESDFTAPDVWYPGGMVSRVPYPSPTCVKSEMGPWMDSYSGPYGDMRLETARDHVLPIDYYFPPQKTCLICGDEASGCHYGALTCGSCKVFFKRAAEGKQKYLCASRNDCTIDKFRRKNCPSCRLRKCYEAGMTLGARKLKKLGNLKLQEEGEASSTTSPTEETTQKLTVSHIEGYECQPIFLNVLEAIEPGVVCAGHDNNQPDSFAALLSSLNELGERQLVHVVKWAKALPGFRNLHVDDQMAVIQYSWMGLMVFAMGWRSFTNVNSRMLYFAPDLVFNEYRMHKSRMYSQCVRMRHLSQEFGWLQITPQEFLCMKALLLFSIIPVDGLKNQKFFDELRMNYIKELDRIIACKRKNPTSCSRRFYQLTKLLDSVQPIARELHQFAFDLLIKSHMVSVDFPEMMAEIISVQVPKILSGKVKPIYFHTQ
Description: AR protein degradation in LNCaP cells (Western blot). The following applies: 8 hours; for percent AR protein degradation at a fixed concentration at 0.01 µM / Degradation of AR protein in LNCaP cells, 10 nM (%): 10 nM; for percent AR protein degradation at a fixed concentration at 0.1 µM / Degradation of AR protein in LNCaP cells, 100 nM (%): 100 nM. Summed up:
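AR degradation rate derived from Western blot band densitometry, referenced to GAPDH, using total lysates of LNCaP cells treated 8 h with compound versus solvent control. Detection used infrared dual-color imaging after SDS-PAGE and PVDF transfer.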
In general terms: Immunoblotting shows a protein as a band on a membrane.

In assay [3] the test system is VCaP cells. Description: Inhibition of VCaP cell proliferation (WST-8). The conditions noted are these: Homo sapiens, 168 hours. The protocol: On the first day of the experiment, VCaP cells were seeded at a density of 15,000 cells/well in a 96-well plate using DMEM medium containing 10% fetal bovine serum, with 100µL of cell suspension per well, and cultured overnight in a cell incubator at 37°C and 5% CO2. On the second day, 100µL of the compound of the present invention and the positive control ARV-110 (source: Anaiji) prepared in culture medium at different concentrations were added to each well. The final concentration of the compound was 9 concentration points of 5-fold serial dilution starting from 10 µM. […] On the ninth day, the 96-well cell culture plate was removed and 1/10 volume of WST-8 (Beytime, C0040) reagent was added to each well. The absorbance at 450nm was measured using a microplate reader (TECAN, F50).

In assay [1], `C[C@H]1CC2(CCN(c3ccc(C(=O)N4CCC(CN5CCN6c7ccc(C(=O)N[C@H]8CCC(=O)NC8=O)c(F)c7OC[C@H]6C5)CC4)cc3)CC2)CN1c1ccc(C#N)c(Cl)c1` [A-P-62, (R)-3-((1-(4-((S)-2-(3-chloro-4-cyanophenyl)-3-methyl-2,8-diazaspiro[4.5]decan-8-yl)benzoyl)piperidin-4-yl)methyl)-N-((S)-2,6-dioxopiperidin-3-yl)-7-fluoro-1,2,3,4,4a,5-hexahydrobenzo[b]pyrazi no[1,2-d][1,4]oxazine-8-carboxamide] registered a 50% inhibitory concentration (IC50) of 9.54 µM. For the same compound, in assay [2], the percent AR protein degradation at a fixed concentration at 0.01 µM turned out to be 47% and the percent AR protein degradation at a fixed concentration at 0.1 µM amounted to 72%. Besides, in assay [3], the half-inhibitory concentration (IC50) was found to be 0.45 µM.

For the compound `N#Cc1cc2c(cc1Cl)CC1(CCN(c3ccc(C(=O)N4CCC(CN5CCC6(CCc7cc(C(=O)N[C@H]8CCC(=O)NC8=O)c(F)cc7O6)CC5)CC4)cc3)CC1)CO2` [A-P-51], the half-maximal inhibitory concentration (IC50) in assay [1] stood at 3.36 µM. In assay [2], the percent AR protein degradation at a fixed concentration at 0.01 µM is -23% and the percent AR protein degradation at a fixed concentration at 0.1 µM was determined as 12%. In assay [3], the IC50 came to 8.44 µM.

As for `CC1(C)[C@H](NC(=O)c2ccc(N3CCC(CN4CCN5c6ccc(C(=O)N[C@H]7CCC(=O)NC7=O)cc6OC[C@H]5C4)CC3)cc2)C(C)(C)[C@H]1Oc1ccc(C#N)c(Cl)c1` [A-P-77], the results for the half-maximal inhibitory concentration (IC50) in assay [1] and in assay [3] were 0.44 µM and 0.0055 µM, respectively. In addition, the “Degradation of AR protein in LNCaP cells, 10 nM (%)” value (“Degradation … 10 nM (%)” below) in assay [2] came to 20%. Also, the “Degradation of AR protein in LNCaP cells, 100 nM (%)” value (shortened to “Degradation … 100 nM (%)”) in assay [2] was found to be 62%.

Regarding `C[C@H]1CC2(CCN(c3ccc(N4CCC(CN5CCN6c7ccc(C(=O)N[C@H]8CCC(=O)NC8=O)c(F)c7OC[C@H]6C5)CC4)cc3)CC2)CN1c1ccc(C#N)c(Cl)c1` [A-P-61, (R)-3-((1-(4-((S)-2-(3-chloro-4-cyanophenyl)-3-methyl-2,8-diazaspiro[4.5]decan-8-yl)phenyl)piperidin-4-yl)methyl)-N-((S)-2,6-dioxopiperidin-3-yl)-7-fluoro-1,2,3,4,4a,5-hexahydrobenzo[b]pyrazi no[1,2-d][1,4]oxazine-8-carboxamide], half-maximal inhibition in assay [1] (IC50) required 0.21 µM. For the same compound, in assay [2], the percent AR protein degradation at a fixed concentration at 0.01 µM turned out to be 24% and the percent AR protein degradation at a fixed concentration at 0.1 µM amounted to 79%. In assay [3], this compound returned an IC50 of 0.19 µM.

On to `C[C@H]1CC2(CCN(c3ccc(N4CCC(CN5CC6(CCC7(CC6)COc6c7ccc7c6CN(C6CCC(=O)NC6=O)C7=O)C5)CC4)cc3)CC2)CN1c1ccc(C#N)c(Cl)c1` (stereo partly drawn) [A-P-6, 2-chloro-4-((3S)-8-(4-(4-((7'-(2,6-dioxopiperidin-3-yl)-6'-oxo-7',8'-dihydro-2'H,6'H-dipyrazole[azetidine-3,1'-cyclohexane-4',3'-furo[2,3-e]isoindol]-1-yl)methyl)piperidin-1-yl)phenyl)-3-methyl-2,8-diazaspiro[4.5]decan-2-yl)benzonitrile], for which inhibition in assay [1] was half-maximal at 1.02 µM (IC50). In assay [2], the “Degradation … 10 nM (%)” value is 58% and the “Degradation … 100 nM (%)” value was determined as 60%. The IC50 in assay [3] is 0.00016 µM.

`COc1cc2c(cc1C(=O)N[C@H]1CCC(=O)NC1=O)C1(CCN(CC3CCN(c4ccc(N5CCC6(CC5)C[C@H](C)N(c5ccc(C#N)c(Cl)c5)C6)cc4)CC3)CC1)CO2` [A-P-81, 1'-((1-(4-((S)-2-(3-chloro-4-cyanophenyl)-3-methyl-2,8-diazaspiro[4.5]decan-8-yl)phenyl)piperidin-4-yl)methyl)-N-((S)-2,6-dioxopiperidin-3-yl)-6-methoxy-2H-spiro[benzofuran-3,4'-piperidin]-5-carboxamide] displayed an IC50 in assay [1] of 14.5 µM. In assay [2], the percent AR protein degradation at a fixed concentration at 0.01 µM was -15% and the percent AR protein degradation at a fixed concentration at 0.1 µM was 30%. Further, in assay [3], the IC50 amounted to 1.79 µM.

Regarding `COc1cc(O[C@H]2C(C)(C)[C@H](NC(=O)c3ccc(N4CCC(CN5CCC6(CC5)COc5c6ccc(C(=O)N[C@H]6CCC(=O)NC6=O)c5OC)CC4)cc3)C2(C)C)ccc1C#N` [A-P-78, 1'-((1-(4-(((1r,3r)-3-(4-cyano-3-methoxyphenoxy)-2,2,4,4-tetramethylcyclobutyl)carbamoyl)phenyl)piperidin-4-yl)methyl)-N-((S)-2,6-dioxopiperidin-3-yl)-7-methoxy-2H-spiro[benzofuran-3,4'-piperidine]-6-carboxamide], the IC50 in assay [1] turned out to be 50.7 µM. Moreover, in assay [2], the “Degradation … 10 nM (%)” value is -2% and the “Degradation … 100 nM (%)” value was 14%. The IC50 in assay [3] was more than 10 µM.

Consider `N#Cc1cc2c(cc1Cl)OC1(CCN(C(=O)c3ccc(N4CCC(CN5CCC6(CCc7cc(C(=O)N[C@H]8CCC(=O)NC8=O)c(F)cc7O6)CC5)CC4)cc3)CC1)CO2` [A-P-53, (S)-1'-((1-(4-(7-chloro-6-cyano-3H-spiro[benzo[b][1,4]dioxane-2,4'-piperidin]-1'-carbonyl)phenyl)piperidin-4-yl)methyl)-N-(2,6-dioxopiperidin-3-yl)-7-fluorospiro[chroman-2,4'-piperidin]-6-carboxamide], for which half-maximal inhibition in assay [1] (IC50) required 0.14 µM. In addition, in assay [2], the percent AR protein degradation at a fixed concentration at 0.01 µM is -11% and the percent AR protein degradation at a fixed concentration at 0.1 µM was -3%. For the same compound, in assay [3], the IC50 was determined as 1.32 µM.

`COc1cc2c(cc1C(=O)N[C@H]1CCC(=O)NC1=O)OCC21CCN(CC2CCN(c3ccc(N4CCC5(CC4)C[C@H](C)N(c4ccc(C#N)c(Cl)c4)C5)cc3)CC2)CC1` [A-P-80, 1'-((1-(4-((S)-2-(3-chloro-4-cyanophenyl)-3-methyl-2,8-diazaspiro[4.5]decan-8-yl)phenyl)piperidin-4-yl)methyl)-N-((S)-2,6-dioxopiperidin-3-yl)-5-methoxy-2H-spiro[benzofuran-3,4'-piperidin]-6-carboxamide]: the IC50 in assay [1] worked out at 1.94 µM. In assay [2], the percent AR protein degradation at a fixed concentration at 0.01 µM came out at 22% and the percent AR protein degradation at a fixed concentration at 0.1 µM amounted to 73%. In assay [3], this compound showed an IC50 of 0.051 µM.
